Experimental data published in patent publication US10897901B2, “Herbicidal composition” (FMC Corporation, priority 2007, dated 2021).

What was measured:
Assay type in all cases: in vivo
[1] = test system: Smooth Crabgrass (Digitaria ischaemum); assay: Example 2 post-emergent turf plot test, tillered crabgrass
Method: (§1) The experimental design used randomized plots with post-emergent treatment and three replications per test trial. The size of each experimental plot was 4 feet by 6 feet. The application of each test composition was performed with pressurized back-pack sprayers, calibrated to spray 200 gallons per acre. Test compositions containing sulfentrazone (DISMISS™ Turf Herbicide), quinclorac, (FACET® 75 DF herbicide) or a mixture of sulfentrazone and quinclorac in a one to three ratio, prepared as described above, were diluted with water to provide the appropriate test rate concentrations.
(§2) The control of weeds was evaluated in each experimental plot from 1 to 27 days after treatment (DAT) of each test rate. The results, shown as an average of the replications, were compared with results observed in untreated control plots in the same trials.

[2] = test system: Field Violet (Viola arvensis); assay: Example 2 post-emergent turf plot test, violet
Method: as §1, §2

[3] = test system: Chickweed (Stellaria media); assay: Example 4 post-emergence greenhouse pot test, chickweed
Method: Test compositions containing sulfentrazone (75 DF formulation), quniclorac, (DRIVE® 75 DF Herbicide) or mixtures of sulfentrazone and quinclorac at ratios of 1:1 to 1:5, were diluted with water to provide the appropriate test rate concentrations. A nonionic surfactant (0.25%) was added to each test solution. The test weeds include crabgrass (Digitaria sp), Chickweed (Stellaria media), Hemp Sesbania (Sesbania exaltata), Kochia (Kochia scoparia), Ivyleaf Morningglory (Ipomoea hederacea), Redroot Pigweed (Amaranthus retroflexus) and yellow nutsedge (Cyperus esculentusi).
(§3) For post-emergence testing, three disposable 3 inch square pots for each rate of application of each herbicide were filled with a soil, comprised of peat moss, vermiculite, bark ash, pine bark, limestone and a wetting agent, to which 8 to 10 seeds were planted. The pots were placed in a greenhouse and watered daily, thus allowing the seeds to germinate and the foliage to develop for 22 days, 3 months for Kochia.
(§4) Pots designated for treatment were placed on a conveyor belt and the conveyor belt fed under a spray nozzle mounted about ten inches above the foliage. The spray of herbicidal solution was commenced and once stabilized; the pots were passed under the spray at a speed to receive a coverage equivalent of 30 gallons per acre. The application rates are those shown in Table 4 below for the individual herbicidal solutions and the mixture of sulfentrazone and quinclorac. The post-emergence pots were immediately placed in the green-house and not watered until 24 hours after treatment with the test solution. Thereafter they were regularly watered at ground level. The control of weeds was evaluated in each experimental test from 2 to 20 days after treatment (DAT). The results, shown as an average of the replications, were compared with results observed in untreated control pots in the same tests.
(§5) Percent control was determined by a method similar to the 0 to 100 rating system disclosed in “Research Methods in Weed Science,” 2nd ed., B. Truelove, Ed.; Southern Weed Science Society; Auburn University, Auburn, Ala., 1977.

[4] = test system: Red River crabgrass (Digitaria ciliaris); assay: Example 3 post-emergence greenhouse pot test, crabgrass
Method: Test compositions containing sulfentrazone (DISMISS™ Turf Herbicide), quniclorac, (DRIVE® 75 DF Herbicide) or mixture of sulfentrazone and quinclorac in a three to one ratio, prepared as described above, were diluted with water to provide the appropriate test rate concentrations. A nonionic surfactant (0.25%) was added to each test solution.
The test weeds include Red River crabgrass (Digitaria ciliaris) and yellow nutsedge (Cyperus esculentusi).
as §3, with “develop.” for “develop for 22 days, 3 months for Kochia.”
as §4, with “Table 3” for “Table 4”, “from 1” for “from 2”, “to 22” for “to 20”
as §5

[5] = test system: Yellow Nutsedge (Cyperus esculentus); assay: Example 2 post-emergent turf plot test, nutsedge
Method: as §1, §2

[6] = 1-2 leaf stage, 11 days old, 0.375 lb ai/acre, 1 DAT
[7] = 1-2 leaf stage, 11 days old, 0.375 lb ai/acre, 3 DAT
[8] = 1-2 leaf stage, 11 days old, 0.375 lb ai/acre, 7 DAT
[9] = 1-2 leaf stage, 11 days old, 0.375 lb ai/acre, 14 DAT
[10] = 1-2 leaf stage, 11 days old, 0.375 lb ai/acre, 21 DAT
[11] = 3-4 leaf stage, 1-2 tillers, 14 days old, 0.375 lb ai/acre, 1 DAT
[12] = 3-4 leaf stage, 1-2 tillers, 14 days old, 0.375 lb ai/acre, 3 DAT
[13] = 3-4 leaf stage, 1-2 tillers, 14 days old, 0.375 lb ai/acre, 7 DAT
[14] = 3-4 leaf stage, 1-2 tillers, 14 days old, 0.375 lb ai/acre, 14 DAT
[15] = 3-4 leaf stage, 1-2 tillers, 14 days old, 0.375 lb ai/acre, 21 DAT

With `Cc1nn(-c2cc(NS(C)(=O)=O)c(Cl)cc2Cl)c(=O)n1C(F)F` [A, N-[2,4-dichloro-5-[4-(difluoromethyl)-4,5-dihydro-3-methyl-5-oxo-1H-1,2,4-triazol-1-yl]phenyl]methanesulfonamide] the “Percent Control” value ([1]; 0.57 lb ai/acre, 7 DAT) was 34%, the “Percent Control” value ([1]; 0.57 lb ai/acre, 14 DAT) was 36% and the “Percent Control” value ([1]; 0.57 lb ai/acre, 21 DAT) was 52%. The “Percent Control” value ([2]; 0.57 lb ai/acre, 7 DAT) was 66%, the “Percent Control” value ([2]; 0.57 lb ai/acre, 14 DAT) was 78% and the “Percent Control” value ([2]; 0.57 lb ai/acre, 21 DAT) was 69%. For the same compound, the Percent Control ([3]; 0.25 lb ai/acre, 2 DAT) was 30%, the Percent Control ([3]; 0.25 lb ai/acre, 7 DAT) was 30% and the Percent Control ([3]; 0.25 lb ai/acre, 14 DAT) was 10%. The Percent Control ([3]; 0.25 lb ai/acre, 20 DAT) was 0%, the “Percent Control” value ([4]; 1-2 leaf stage, 11 days old, 0.125 lb ai/acre, 1 DAT) was 50% and the “Percent Control” value ([4]; 1-2 leaf stage, 11 days old, 0.125 lb ai/acre, 3 DAT) was 60%. For the same compound, the “Percent Control” value ([4]; 1-2 leaf stage, 11 days old, 0.125 lb ai/acre, 7 DAT) was 50%, the “Percent Control” value ([4]; 1-2 leaf stage, 11 days old, 0.125 lb ai/acre, 14 DAT) was 40% and the “Percent Control” value ([4]; 1-2 leaf stage, 11 days old, 0.125 lb ai/acre, 21 DAT) was 30%. For the same compound, the “Percent Control” value ([4]; 1-2 leaf stage, 11 days old, 0.25 lb ai/acre, 1 DAT) was 60%, the “Percent Control” value ([4]; 1-2 leaf stage, 11 days old, 0.25 lb ai/acre, 3 DAT) was 70% and the “Percent Control” value ([4]; 1-2 leaf stage, 11 days old, 0.25 lb ai/acre, 7 DAT) was 50%. For the same compound, the “Percent Control” value ([4]; 1-2 leaf stage, 11 days old, 0.25 lb ai/acre, 14 DAT) was 20%, the “Percent Control” value ([4]; 1-2 leaf stage, 11 days old, 0.25 lb ai/acre, 21 DAT) was 5% and the “Percent Control” value [4, 6] was 50%. The “Percent Control” value [4, 7] was 70%, the “Percent Control” value [4, 8] was 50% and the “Percent Control” value [4, 9] was 20%. The “Percent Control” value [4, 10] was 10%, the “Percent Control” value ([4]; 3-4 leaf stage, 1-2 tillers, 14 days old, 0.125 lb ai/acre, 1 DAT) was 25% and the “Percent Control” value ([4]; 3-4 leaf stage, 1-2 tillers, 14 days old, 0.125 lb ai/acre, 3 DAT) was 25%. For the same compound, the “Percent Control” value ([4]; 3-4 leaf stage, 1-2 tillers, 14 days old, 0.125 lb ai/acre, 7 DAT) was 30%, the “Percent Control” value ([4]; 3-4 leaf stage, 1-2 tillers, 14 days old, 0.125 lb ai/acre, 14 DAT) was 10% and the “Percent Control” value ([4]; 3-4 leaf stage, 1-2 tillers, 14 days old, 0.125 lb ai/acre, 21 DAT) was 5%. The “Percent Control” value ([4]; 3-4 leaf stage, 1-2 tillers, 14 days old, 0.25 lb ai/acre, 1 DAT) was 25%, the “Percent Control” value ([4]; 3-4 leaf stage, 1-2 tillers, 14 days old, 0.25 lb ai/acre, 3 DAT) was 25% and the “Percent Control” value ([4]; 3-4 leaf stage, 1-2 tillers, 14 days old, 0.25 lb ai/acre, 7 DAT) was 30%. For the same compound, the “Percent Control” value ([4]; 3-4 leaf stage, 1-2 tillers, 14 days old, 0.25 lb ai/acre, 14 DAT) was 12%, the “Percent Control” value ([4]; 3-4 leaf stage, 1-2 tillers, 14 days old, 0.25 lb ai/acre, 21 DAT) was 5% and the “Percent Control” value [4, 11] was 20%. The “Percent Control” value [4, 12] was 20%, the “Percent Control” value [4, 13] was 22% and the “Percent Control” value [4, 14] was 0%. For the same compound, the “Percent Control” value [4, 15] was 0%, the “Percent Control” value ([5]; 0.57 lb ai/acre, 7 DAT) was 100% and the “Percent Control” value ([5]; 0.57 lb ai/acre, 14 DAT) was 100%. For the same compound, the “Percent Control” value ([5]; 0.57 lb ai/acre, 21 DAT) was 100%.
With `O=C(O)c1c(Cl)ccc2cc(Cl)cnc12` [B, 3,7-dichloro-8-quinolinecarboxylic acid] the “Percent Control” value ([1]; 0.75 lb ai/acre, 7 DAT) was 54%, the “Percent Control” value ([1]; 0.75 lb ai/acre, 14 DAT) was 66% and the “Percent Control” value ([1]; 0.75 lb ai/acre, 21 DAT) was 67%. The “Percent Control” value ([2]; 0.75 lb ai/acre, 7 DAT) was 46%, the “Percent Control” value ([2]; 0.75 lb ai/acre, 14 DAT) was 48% and the “Percent Control” value ([2]; 0.75 lb ai/acre, 21 DAT) was 51%. It also gave a Percent Control ([3]; 0.25 lb ai/acre, 2 DAT) of 0%, a Percent Control ([3]; 0.25 lb ai/acre, 7 DAT) of 0% and a Percent Control ([3]; 0.25 lb ai/acre, 14 DAT) of 0%. It also gave a Percent Control ([3]; 0.25 lb ai/acre, 20 DAT) of 0%, a Percent Control ([3]; 0.5 lb ai/acre, 2 DAT) of 0% and a Percent Control ([3]; 0.5 lb ai/acre, 7 DAT) of 0%. The Percent Control ([3]; 0.5 lb ai/acre, 14 DAT) was 0%, the Percent Control ([3]; 0.5 lb ai/acre, 20 DAT) was 0% and the Percent Control ([3]; 0.75 lb ai/acre, 2 DAT) was 0%. It also gave a Percent Control ([3]; 0.75 lb ai/acre, 7 DAT) of 0%, a Percent Control ([3]; 0.75 lb ai/acre, 14 DAT) of 0% and a Percent Control ([3]; 0.75 lb ai/acre, 20 DAT) of 0%. The Percent Control ([3]; 1.0 lb ai/acre, 2 DAT) was 0%, the Percent Control ([3]; 1.0 lb ai/acre, 7 DAT) was 5% and the Percent Control ([3]; 1.0 lb ai/acre, 14 DAT) was 5%. It also gave a Percent Control ([3]; 1.0 lb ai/acre, 20 DAT) of 5%, a Percent Control ([3]; 1.25 lb ai/acre, 2 DAT) of 5% and a Percent Control ([3]; 1.25 lb ai/acre, 7 DAT) of 5%. For the same compound, the Percent Control ([3]; 1.25 lb ai/acre, 14 DAT) was 2%, the Percent Control ([3]; 1.25 lb ai/acre, 20 DAT) was 5% and the “Percent Control” value [4, 6] was 0%. For the same compound, the “Percent Control” value [4, 7] was 5%, the “Percent Control” value [4, 8] was 5% and the “Percent Control” value [4, 9] was 0%. For the same compound, the “Percent Control” value [4, 10] was 0%, the “Percent Control” value ([4]; 1-2 leaf stage, 11 days old, 0.75 lb ai/acre, 1 DAT) was 0% and the “Percent Control” value ([4]; 1-2 leaf stage, 11 days old, 0.75 lb ai/acre, 3 DAT) was 10%. For the same compound, the “Percent Control” value ([4]; 1-2 leaf stage, 11 days old, 0.75 lb ai/acre, 7 DAT) was 5%, the “Percent Control” value ([4]; 1-2 leaf stage, 11 days old, 0.75 lb ai/acre, 14 DAT) was 0% and the “Percent Control” value ([4]; 1-2 leaf stage, 11 days old, 0.75 lb ai/acre, 21 DAT) was 0%. The “Percent Control” value ([4]; 1-2 leaf stage, 11 days old, 1.0 lb ai/acre, 1 DAT) was 0%, the “Percent Control” value ([4]; 1-2 leaf stage, 11 days old, 1.0 lb ai/acre, 3 DAT) was 10% and the “Percent Control” value ([4]; 1-2 leaf stage, 11 days old, 1.0 lb ai/acre, 7 DAT) was 10%. For the same compound, the “Percent Control” value ([4]; 1-2 leaf stage, 11 days old, 1.0 lb ai/acre, 14 DAT) was 2%, the “Percent Control” value ([4]; 1-2 leaf stage, 11 days old, 1.0 lb ai/acre, 21 DAT) was 2% and the “Percent Control” value [4, 11] was 0%. The “Percent Control” value [4, 12] was 5%, the “Percent Control” value [4, 13] was 5% and the “Percent Control” value [4, 14] was 0%. The “Percent Control” value [4, 15] was 0%, the “Percent Control” value ([4]; 3-4 leaf stage, 1-2 tillers, 14 days old, 0.75 lb ai/acre, 1 DAT) was 0% and the “Percent Control” value ([4]; 3-4 leaf stage, 1-2 tillers, 14 days old, 0.75 lb ai/acre, 3 DAT) was 5%. For the same compound, the “Percent Control” value ([4]; 3-4 leaf stage, 1-2 tillers, 14 days old, 0.75 lb ai/acre, 7 DAT) was 5%, the “Percent Control” value ([4]; 3-4 leaf stage, 1-2 tillers, 14 days old, 0.75 lb ai/acre, 14 DAT) was 5% and the “Percent Control” value ([4]; 3-4 leaf stage, 1-2 tillers, 14 days old, 0.75 lb ai/acre, 21 DAT) was 0%. The “Percent Control” value ([4]; 3-4 leaf stage, 1-2 tillers, 14 days old, 1.0 lb ai/acre, 1 DAT) was 0%, the “Percent Control” value ([4]; 3-4 leaf stage, 1-2 tillers, 14 days old, 1.0 lb ai/acre, 3 DAT) was 5% and the “Percent Control” value ([4]; 3-4 leaf stage, 1-2 tillers, 14 days old, 1.0 lb ai/acre, 7 DAT) was 10%. For the same compound, the “Percent Control” value ([4]; 3-4 leaf stage, 1-2 tillers, 14 days old, 1.0 lb ai/acre, 14 DAT) was 5%, the “Percent Control” value ([4]; 3-4 leaf stage, 1-2 tillers, 14 days old, 1.0 lb ai/acre, 21 DAT) was 5% and the “Percent Control” value ([5]; 0.75 lb ai/acre, 7 DAT) was 83%. The “Percent Control” value ([5]; 0.75 lb ai/acre, 14 DAT) was 54% and the “Percent Control” value ([5]; 0.75 lb ai/acre, 21 DAT) was 37%.
